Our source for the IC50 values is patent US9850225B2, “Compounds useful as immunomodulators” (BRISTOL-MYERS SQUIBB COMPANY, priority 2014, dated 2017).

In the assay the target is PD-1/PD-L1 interaction (PD-1-Ig / PD-L1-His) (Homo sapiens (Human), UniProt Q9NZQ7). Kind of assay: PD-1/PD-L1 Homogenous Time-Resolved Fluorescence (HTRF) binding assay. The following applies: PD-1/PD-L1 HTRF binding assay; value given as range class; read-out: Range or IC50. In a few lines: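 Human PD-L1-His (10 nM final) was pre-incubated with inhibitor for 15 min, then PD-1-Ig (20 nM final) was added for a further 15 min in dPBS with 0.1% BSA and 0.05% Tween-20. Binding was detected by HTRF using Eu-cryptate anti-Ig (1 nM) and APC anti-His (20 nM).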
Chain of PD-1/PD-L1 interaction (PD-1-Ig / PD-L1-His) (Q9NZQ7 other isoform, or with tags, fused parts or gaps): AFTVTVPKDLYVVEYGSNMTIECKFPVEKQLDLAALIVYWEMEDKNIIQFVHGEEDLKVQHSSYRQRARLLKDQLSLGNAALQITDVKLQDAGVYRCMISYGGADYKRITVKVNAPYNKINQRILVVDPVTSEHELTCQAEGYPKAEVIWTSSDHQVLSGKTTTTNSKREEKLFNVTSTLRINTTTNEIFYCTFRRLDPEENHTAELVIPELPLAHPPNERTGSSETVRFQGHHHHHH

With `Cc1c(COc2cc(OCc3cccc(C#N)c3)c(CNC(Cc3c[nH]c4ccc(O)cc34)C(=O)O)cc2Cl)cccc1-c1ccc2c(c1)OCCO2` (stereo not drawn) [Example 1167, 2-((5-chloro-2-((3-cyanobenzyl)oxy)-4-((3-(2,3-dihydrobenzo[b][1,4]dioxin-6-yl)-2-methylbenzyl)oxy)benzyl)amino)-3-(5-hydroxy-1H-indol-3-yl)propanoic acid], the 50% inhibitory concentration (IC50) is 10 to 100 nM. Next, `Cc1c(COc2cc(OCc3cccc(C#N)c3)c(CNC(Cc3cn(C)c4ccccc34)C(=O)O)cc2Cl)cccc1-c1ccc2c(c1)OCCO2` (stereo not drawn) [Example 1168, 2-((5-chloro-2-((3-cyanobenzyl)oxy)-4-((3-(2,3-dihydrobenzo[b][1,4]dioxin-6-yl)-2-methylbenzyl)oxy)benzyl)amino)-3-(1-methyl-1H-indol-3-yl)propanoic acid]: 100 to 20000 nM. For the compound `Cc1c(COc2cc(OCc3cccc(C#N)c3)c(CN[C@H](C)C(=O)O)cc2Cl)cccc1-c1ccc2c(c1)OCCO2` [Example 1169, (R)-2-((5-chloro-2-((3-cyanobenzyl)oxy)-4-((3-(2,3-dihydrobenzo[b][1,4]dioxin-6-yl)-2-methylbenzyl)oxy)benzyl)amino)propanoic acid], the IC50 lay in the range of 0.6 to 10 nM. In the case of `Cc1c(COc2cc(OCc3cccc(C#N)c3)c(CNCCO)cc2Cl)cccc1-c1ccc2c(c1)OCCO2` [Example 1170, 3-((4-chloro-5-((3-(2,3-dihydrobenzo[b][1,4]dioxin-6-yl)-2-methylbenzyl)oxy)-2-(((2-hydroxyethyl)amino)methyl)phenoxy)methyl)benzonitrile] it was 0.6 to 10 nM; in that of `Cc1c(COc2cc(OCc3cccc(C#N)c3)c(CN(Cc3ccccc3)[C@@H](CO)C(=O)O)cc2Cl)cccc1-c1ccc2c(c1)OCCO2` [Example 1171, (S)-2-(benzyl(5-chloro-2-((3-cyanobenzyl)oxy)-4-((3-(2,3-dihydrobenzo[b][1,4]dioxin-6-yl)-2-methylbenzyl)oxy)benzyl)amino)-3-hydroxypropanoic acid], 10 to 100 nM; in that of `Cc1c(COc2cc(OCc3cccc(C#N)c3)c(CNC(CN(C)C)C(=O)O)cc2Cl)cccc1-c1ccc2c(c1)OCCO2` (stereo not drawn) [Example 1172, 2-((5-chloro-2-((3-cyanobenzyl)oxy)-4-((3-(2,3-dihydrobenzo[b][1,4]dioxin-6-yl)-2-methylbenzyl)oxy)benzyl)amino)-3-(dimethylamino)propanoic acid], 0.6 to 10 nM. Next, `Cc1c(COc2cc(OCc3cccc(C#N)c3)c(CN[C@@H](CCCCN(C)C)C(=O)O)cc2Cl)cccc1-c1ccc2c(c1)OCCO2` [Example 1173, (S)-2-((5-chloro-2-((3-cyanobenzyl)oxy)-4-((3-(2,3-dihydrobenzo[b][1,4]dioxin-6-yl)-2-methylbenzyl)oxy)benzyl)amino)-6-(dimethylamino)hexanoic acid]: 0.6 to 10 nM; `Cc1c(COc2cc(OCc3cccc(C#N)c3)c(CN[C@@H](CC[S+](C)[O-])C(=O)O)cc2Cl)cccc1-c1ccc2c(c1)OCCO2` (stereo partly drawn) [Example 1174, (2S)-2-((5-chloro-2-((3-cyanobenzyl)oxy)-4-((3-(2,3-dihydrobenzo[b][1,4]dioxin-6-yl)-2-methylbenzyl)oxy)benzyl)amino)-4-(methylsulfinyl)butanoic acid]: 0.6 to 10 nM; `Cc1c(COc2cc(OCc3cccc(C#N)c3)c(CN[C@H](CC(=O)O)C(=O)O)cc2Cl)cccc1-c1ccc2c(c1)OCCO2` [Example 1175, (R)-2-((5-chloro-2-((3-cyanobenzyl)oxy)-4-((3-(2,3-dihydrobenzo[b][1,4]dioxin-6-yl)-2-methylbenzyl)oxy)benzyl)amino)succinic acid]: 10 to 100 nM. In the case of `Cc1c(COc2cc(OCc3cccc(C#N)c3)c(CN[C@@H](Cc3cn(C)cn3)C(=O)O)cc2Cl)cccc1-c1ccc2c(c1)OCCO2` [Example 1176, (S)-2-((5-chloro-2-((3-cyanobenzyl)oxy)-4-((3-(2,3-dihydrobenzo[b][1,4]dioxin-6-yl)-2-methylbenzyl)oxy)benzyl)amino)-3-(1-methyl-1H-imidazol-4-yl)propanoic acid] it was 0.6 to 10 nM. For `Cc1c(COc2cc(OCc3cccc(C#N)c3)c(CNC3(C(=O)O)CC3)cc2Cl)cccc1-c1ccc2c(c1)OCCO2` [Example 1177, 1-((5-chloro-2-((3-cyanobenzyl)oxy)-4-((3-(2,3-dihydrobenzo[b][1,4]dioxin-6-yl)-2-methylbenzyl)oxy)benzyl)amino)cyclopropanecarboxylic acid], the IC50 was 0.6 to 10 nM. In the case of `Cc1c(COc2cc(OCc3cccc(C#N)c3)c(CNC(Cc3nccs3)C(=O)O)cc2Cl)cccc1-c1ccc2c(c1)OCCO2` (stereo not drawn) [Example 1178, 2-((5-chloro-2-((3-cyanobenzyl)oxy)-4-((3-(2,3-dihydrobenzo[b][1,4]dioxin-6-yl)-2-methylbenzyl)oxy)benzyl)amino)-3-(thiazol-2-yl)propanoic acid] it was 10 to 100 nM; in that of `COC(C)(C)C(NCc1cc(Cl)c(OCc2cccc(-c3ccc4c(c3)OCCO4)c2C)cc1OCc1cccc(C#N)c1)C(=O)O` (stereo not drawn) [Example 1179, 2-((5-chloro-2-((3-cyanobenzyl)oxy)-4-((3-(2,3-dihydrobenzo[b][1,4]dioxin-6-yl)-2-methylbenzyl)oxy)benzyl)amino)-3-methoxy-3-methylbutanoic acid], 10 to 100 nM. Next, `Cc1c(COc2cc(OCc3cccc(C#N)c3)c(CN[C@@H](CC#N)C(=O)O)cc2Cl)cccc1-c1ccc2c(c1)OCCO2` [Example 1180, (S)-2-((5-chloro-2-((3-cyanobenzyl)oxy)-4-((3-(2,3-dihydrobenzo[b][1,4]dioxin-6-yl)-2-methylbenzyl)oxy)benzyl)amino)-3-cyanopropanoic acid]: 10 to 100 nM. As for `Cc1c(COc2cc(OCc3cccc(C#N)c3)c(CNC(Cc3ccccc3O)C(=O)O)cc2Cl)cccc1-c1ccc2c(c1)OCCO2` (stereo not drawn) [Example 1181, 2-((5-chloro-2-((3-cyanobenzyl)oxy)-4-((3-(2,3-dihydrobenzo[b][1,4]dioxin-6-yl)-2-methylbenzyl)oxy)benzyl)amino)-3-(2-hydroxyphenyl)propanoic acid], the IC50 was in the range of 10 to 100 nM.

As to `Cc1c(COc2cc(OCc3cccc(C#N)c3)c(CNC(CCS(C)(=O)=O)C(=O)O)cc2Cl)cccc1-c1ccc2c(c1)OCCO2` (stereo not drawn) [Example 1182, 2-((5-chloro-2-((3-cyanobenzyl)oxy)-4-((3-(2,3-dihydrobenzo[b][1,4]dioxin-6-yl)-2-methylbenzyl)oxy)benzyl)amino)-4-(methylsulfonyl)butanoic acid], the IC50 is 0.6 to 10 nM. On to `Cc1c(COc2cc(OCc3cccc(C#N)c3)c(CN(C)[C@@H](CO)C(=O)O)cc2Cl)cccc1-c1ccc2c(c1)OCCO2` [Example 1183, (S)-2-((5-chloro-2-((3-cyanobenzyl)oxy)-4-((3-(2,3-dihydrobenzo[b][1,4]dioxin-6-yl)-2-methylbenzyl)oxy)benzyl)(methyl)amino)-3-hydroxypropanoic acid], for which the IC50 was in the range of 0.6 to 10 nM. For `COCC(NCc1cc(Cl)c(OCc2cccc(-c3ccc4c(c3)OCCO4)c2C)cc1OCc1cccc(C#N)c1)C(=O)O` (stereo not drawn) [Example 1184, 2-((5-chloro-2-((3-cyanobenzyl)oxy)-4-((3-(2,3-dihydrobenzo[b][1,4]dioxin-6-yl)-2-methylbenzyl)oxy)benzyl)amino)-3-methoxypropanoic acid], the IC50 is 0.6 to 10 nM. Turning to `Cc1c(COc2cc(OCc3cccc(C#N)c3)c(CNC(Cc3c[nH]c4ncccc34)C(=O)O)cc2Cl)cccc1-c1ccc2c(c1)OCCO2` (stereo not drawn) [Example 1185, 2-((5-chloro-2-((3-cyanobenzyl)oxy)-4-((3-(2,3-dihydrobenzo[b][1,4]dioxin-6-yl)-2-methylbenzyl)oxy)benzyl)amino)-3-(1H-pyrrolo[2,3-b]pyridin-3-yl)propanoic acid], the IC50 was 10 to 100 nM. In the case of `Cc1c(COc2cc(OCc3cccc(C#N)c3)c(CN[C@@H](Cc3cn(Cc4ccccc4)cn3)C(=O)O)cc2Cl)cccc1-c1ccc2c(c1)OCCO2` [Example 1186, (S)-3-(1-benzyl-1H-imidazol-4-yl)-2-((5-chloro-2-((3-cyanobenzyl)oxy)-4-((3-(2,3-dihydrobenzo[b][1,4]dioxin-6-yl)-2-methylbenzyl)oxy)benzyl)amino)propanoic acid] it was 0.6 to 10 nM; in that of `Cc1c(COc2cc(OCc3cccc(C#N)c3)c(CNC(Cc3ccc(O)cc3)C(=O)O)cc2Cl)cccc1-c1ccc2c(c1)OCCO2` (stereo not drawn) [Example 1187, 2-((5-chloro-2-((3-cyanobenzyl)oxy)-4-((3-(2,3-dihydrobenzo[b][1,4]dioxin-6-yl)-2-methylbenzyl)oxy)benzyl)amino)-3-(4-hydroxyphenyl)propanoic acid], 10 to 100 nM; in that of `Cc1c(COc2cc(OCc3cccc(C#N)c3)c(CN(C)C(C)C(=O)O)cc2Cl)cccc1-c1ccc2c(c1)OCCO2` (stereo not drawn) [Example 1188, 2-((5-chloro-2-((3-cyanobenzyl)oxy)-4-((3-(2,3-dihydrobenzo[b][1,4]dioxin-6-yl)-2-methylbenzyl)oxy)benzyl)(methyl)amino)propanoic acid], 0.6 to 10 nM.

`Cc1c(COc2cc(OCc3cccc(C#N)c3)c(CN[C@H](C(=O)O)[C@H](C)O)cc2Cl)cccc1-c1ccc2c(c1)OCCO2` [Example 1189, (2S,3S)-2-((5-chloro-2-((3-cyanobenzyl)oxy)-4-((3-(2,3-dihydrobenzo[b][1,4]dioxin-6-yl)-2-methylbenzyl)oxy)benzyl)amino)-3-hydroxybutanoic acid]: the IC50 was in the range of 0.6 to 10 nM. Next, `Cc1c(COc2cc(OCc3cccc(C#N)c3)c(CN3CCC[C@@H](C(=O)O)[C@H]3C(=O)O)cc2Cl)cccc1-c1ccc2c(c1)OCCO2` [Example 1190, (2S,3R)-1-(5-chloro-2-((3-cyanobenzyl)oxy)-4-((3-(2,3-dihydrobenzo[b][1,4]dioxin-6-yl)-2-methylbenzyl)oxy)benzyl)piperidine-2,3-dicarboxylic acid]: 0.6 to 10 nM.
